This is an account of results in patent publication US9145385B2, “Crystalline salts of R)-3-[6-amino-pyridin-3-yl]-2-(1-cyclohexy1-1H-imidazol-4-yl)-propionic acid” (Sanofi, priority 2011, dated 2015).

Data set [1] can be described thus: Dynamic Vapor Sorption (DVS) moisture sorption/desorption isotherm at 25° C. The format is physicochemical. The procedure: Moisture sorption/desorption isotherms were recorded on a SPS11-10μ from Projekt Messtechnik (Ulm, Germany). One cycle was run at 25° C., in which the sample was first stepwise decreased to 0% RH and then the relative humidity was stepwise increased from 0 to 95% and the weight of the sample was measured. Typical total measurement times for both cycles were about 20 to 30 hours.
The measurement was performed as disclosed in Example 7 with (R)-3-[6-amino-pyridin-3-yl]-2-(1-cyclohexyl-1H-imidazol-4-yl)-propionic acid (free acid, amorphous) and the received data are shown in the following table 2.

A short description of data set [2]: Chemical stability under elevated temperature and humidity. The format is physicochemical. As to conditions: result in words.

Regarding `Nc1ccc(CC(C(=O)O)c2cn(C3CCCCC3)cn2)cn1` (stereo not shown) [3-[6-amino-pyridin-3-yl]-2-(1-cyclohexyl-1H-imidazol-4-yl)-propionic acid, reference compound], the “hygroscopicity (absorption or adsorption of water molecules from the surrounding environment)” value in data set [1] (result in words) is given as “hygroscopic”.

As to `Nc1ccc(C[C@@H](C(=O)[O-])c2cn(C3CCCCC3)cn2)cn1.[Na+]` [(R)-3-[6-amino-pyridin-3-yl]-2-(1-cyclohexyl-1H-imidazol-4-yl)-propionic acid sodium salt monohydrate], in data set [1] (DVS 25° C., at 0.2% RH, phase transition monohydrate to anhydrate), the desorption of water is on record as −4.4%.

Consider `Nc1ccc(C[C@@H](C(=O)O)c2cn(C3CCCCC3)cn2)cn1` [(R)-3-[6-amino-pyridin-3-yl]-2-(1-cyclohexyl-1H-imidazol-4-yl)-propionic acid], for which, in data set [2], the chemical stability result is given as “chemically not stable” and the “enantiomeric purity on storage” value is “reduced within a short time”.
